According to US11986450B2, “Methods and compositions for treating infection and inflammation with selenocyanate” (National Jewish Health, priority 2017, dated 2024):

Experiments:
[1] = system: P. aeruginosa: AMT0009L; test: HOSCN reductase activity
[2] = system: P. aeruginosa: AMT0058L; test: HOSCN reductase activity
[3] = system: E. coli: AB1157; test: HOSCN reductase activity
[4] = system: P. aeruginosa: AMT0105L; test: HOSCN reductase activity
[5] = system: P. aeruginosa: AMT0058L; test: Viability after HOSCN exposure; conditions: late disease antibiotic-resistant CF isolate
[6] = system: P. aeruginosa: PAO1; test: Viability after HOSCN exposure
[7] = system: PA 39; test: Bacterial sensitivity towards HOSCN killing; type: cell-based, Pseudomonas aeruginosa (PA); conditions: PA 39, CF sputum isolate; HOSCN flux for 2 hours, GOX/LPO/SCN system, pH 7.4
Experimental: (§1) FIGS. 11A-11D. […] A lactoperoxidase (LPO) system was used to generate increasing fluxes of either HOSCN or HOSeCN in presence of 400 μM of either ^−SCN or ^−SeCN. LPO in the presence of a hydrogen peroxide generating system (glucose oxidase, GOX) can convert both thiocyanate and selenocyante to their respective hypopseudohalous acid species (HOSCN and HOSeCN) that are biocides. […] Bacterial inoculums (10^6 colony forming units, CFU) were incubated with host defense system for 2 hours at room temperature and bacteria were plated on LB agar plates and cell viability was determined by dilution and counting CFUs.
(§2) LPO in the presence of a hydrogen peroxide generating system (glucose oxidase, GOX) can convert both thiocyanate and selenocyante to their respective hypopseudohalous acid species (HOSCN and HOSeCN) that are biocides. […] Bacterial inoculums (10^6 colony forming units, CFU) were incubated with host defense system for 2 hours at room temperature and bacteria were plated on LB agar plates and cell viability was determined by dilution and counting CFUs. Lethal concentrations that kill 50% of bacteria (LC50) were determined by non-linear curve fitting the data.
(§3) Bacteria were incubated for 2 hour with LPO, ^−SCN or SeCN, glucose and increasing amounts of GOX. The flux (HOX) of either HOSCN or HOSeCN was determined from standard curves of GOX/LPO and either HOSCN or HOSeCN. LC50 values were determined by curve fitting the data with nonlinear regression of log (agonist) vs normalized response.

[8] = system: PAO1; test: Bacterial sensitivity towards HOSCN killing; type: cell-based, Pseudomonas aeruginosa (PA); conditions: HOSCN flux for 2 hours, GOX/LPO/SCN system, pH 7.4
Experimental: as §1, §2, §3

[9] = system: PA-X; test: Bacterial sensitivity towards HOSCN killing; type: cell-based, Pseudomonas aeruginosa (PA); conditions: CF sputum isolate, HOSCN flux for 2 hours, GOX/LPO/SCN system, pH 7.4
Experimental: as §1, §2, §3

[10] = system: P. aeruginosa: AMT0145L; test: Viability after HOSCN exposure; conditions: late disease antibiotic-resistant CF isolate
[11] = system: Pseudomonas aeruginosa (PA01); test: Bacterial viability (CFU) after HOSCN generation; type: cell-based; conditions: 2 hrs, about 120 μM/hr
Experimental: (§4) FIGS. 4A-4B. […] Studies were conducted under similar conditions that generated about 120 μM/hr of either HOCl or HOSCN. (FIG. 4A) Human bronchiolar lung cells (16HBE) or (FIG. 4B) Pseudomonas aeruginosa (PA01) were treated for 2 hrs with glucose oxidase (GOX) system (generates H2O2), enzyme alone (MPO or LPO), or full system (enzyme+GOX), or full system with […]. Viability was assessed 24 hrs later by lactate dehydrogenase release for lung cells or determination of colony forming units (CFUs) for bacteria.

[12] = system: Sec-TrxR activity in J774 cells; test: Sec-TrxR activity induction in J774 cells; type: cell-based; conditions: 2 hours exposure, lysates measured 24 hours later
Experimental: FIG. 17. […] Cells were exposed to increasing concentrations of HOSCN, hydrogen peroxide or 100 ng/ml PA LPS for 2 hours and then cell lysates where measured 24 hours later for Sec-TrxR activity.
The role of extracellular SCN in modulating neutrophil responses to infectious stimuli, and to test how this impacts their ability to kill or suppress bacterial growth and attenuate pro-inflammatory environments is determined as provided for in Example 3 herein. De-identified human blood neutrophils from normal and CF subjects are used. Readouts include changes in bacterial growth rates, phagocytosis, and cytokine release over time correlated to changes in intracellular ^−SCN and Sec-TrxR levels. Additionally, how extracellular thiol levels modulate leukocyte function by changing intracellular thiol status and its known effects on dampening NFkB cell signaling pathways based on previous work with GSH (Gould, N. S., et al. (2011) Macropinocytosis of extracellular glutathione ameliorates tumor necrosis factor alpha release in activated macrophages. PLoS One 6, e25704) is disclosed. […] Since HOSCN is an oxidant and capable of redox signaling, examination of whether it can regulate its own metabolism by inducing Sec-TrxR expression is done.

[13] = system: Human bronchiolar lung cells (16HBE); test: Lung cell viability (LDH release) after HOSCN generation; type: cell-based; conditions: 2 hrs, about 120 μM/hr, viability 24 hrs later
Experimental: as §4

[14] = biological target: purified E. coli Cys-TrxR (Escherichia coli, UniProt P0A9P4); test: Sulfenic acid (dimedone label) formation, western blot; type: biochemical; conditions: 5 minutes exposure; reversible by NAC
Experimental: FIG. 15. Western blot of sulfenic acid (dimedione label) formation on purified E. coli Cys-TrxR after 5 minutes HOSCN exposure (molar ratios label each lane) or plus 1 minute PBS or N-acetylcysteine (NAC). For lane 8, H2O2 was used instead of HOSCN.
HOSCN is an interesting oxidant due to its affinity for only very acidic thiol groups on proteins (Barrett, T. J., et al. (2012) Inactivation of thiol-dependent enzymes by hypothiocyanous acid: role of sulfenyl thiocyanate and sulfenic acid intermediates. Free Radic Biol Med 52, 1075-1085). This property of HOSCN allows it to diffuse much easier to distant targets. Cys-TrxR has two cysteine residues in its active site that are acidic and it is expected that HOSCN oxidizes them as part of its mechanism of inactivation. Data has shown that dimedone labels sulfenic acid residues in E. coli Cys-TrxR upon selective thiol oxidation by HOSCN (FIG. 15). […] This probe can be used in tandem with western blotting and LC-MS approaches to characterize thiol oxidation of bacterial Cys-TrxRs. Although previous studies have looked at potential bacteria targets for oxidative inactivation by oxidants produced by haloperoxidases, Cys-TrxR was not previously identified (Tenovuo, J., and Pruitt, K. M. (1984) Relationship of the human salivary peroxidase system to oral health. J Oral Pathol 13, 573-584).

[15] = system: P. aeruginosa: AMT0105L; test: Viability after HOSCN exposure; conditions: late disease antibiotic-resistant CF isolate

Sequence of purified E. coli Cys-TrxR (P0A9P4 whole entry): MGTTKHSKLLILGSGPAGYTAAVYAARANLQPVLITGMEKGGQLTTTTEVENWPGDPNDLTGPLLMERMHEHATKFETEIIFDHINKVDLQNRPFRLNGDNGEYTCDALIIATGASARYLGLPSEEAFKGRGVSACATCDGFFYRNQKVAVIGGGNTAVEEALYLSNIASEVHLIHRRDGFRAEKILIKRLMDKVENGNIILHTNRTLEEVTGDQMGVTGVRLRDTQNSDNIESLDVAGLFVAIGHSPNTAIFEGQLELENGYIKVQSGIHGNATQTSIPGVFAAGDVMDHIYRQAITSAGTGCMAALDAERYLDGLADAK

N#CSO [HOSCN, hypothiocyanite]
Apparent Vmax (HOSCN reductase activity) [1]: 0.8 ± 0.3 nmol/mg/min
Apparent Vmax (HOSCN reductase activity) [2]: 1.2 ± 0.2 nmol/mg/min
Apparent Vmax (HOSCN reductase activity) [3]: ND^c (No activity detected. Limit of detection = 0.5 nmol mg^−1 min^−1)
Apparent Vmax (HOSCN reductase activity) [4]: ND^c (No activity detected. Limit of detection = 0.5 nmol mg^−1 min^−1)
Viability (%) [5]: 0.7 ± 0.4%
Viability (%) [6]: 0%
HOSCN IC50 [7]: 5 µM/h
HOSCN IC50 [8]: 18 µM/h
HOSCN IC50 [9]: 13 µM/h
Viability (%) [10]: 24.8 ± 2.5%
Bacterial viability (CFU) [11]: killing bacteria
Sec-TrxR activity [12]: induces Sec-TrxR activity
Lung cell viability [13]: spares host lung epithelial cells
Oxidation of Cys-TrxR [14]: rapidly oxidized
Viability (%) [15]: 0%
